# Measured values: PMC7221589, “Development of a Rapid Mass Spectrometric Determination of AMP and Cyclic AMP for PDE3 Activity Study: Application and Computational Analysis for Evaluating the Effect of a Novel 2-oxo-1,2-dihydropyridine-3-carbonitrile Derivative as PDE-3 Inhibitor” (Molecules, 2020)
# Biological target: PDE3A (phosphodiesterase enzyme 3A) (Homo sapiens, UniProt Q14432)
# Test: MS/MS assay of cAMP hydrolysis to AMP by purchased PDE3A, dose-response
# Format: biochemical
# Chain of PDE3A (phosphodiesterase enzyme 3A) (Q14432 whole entry): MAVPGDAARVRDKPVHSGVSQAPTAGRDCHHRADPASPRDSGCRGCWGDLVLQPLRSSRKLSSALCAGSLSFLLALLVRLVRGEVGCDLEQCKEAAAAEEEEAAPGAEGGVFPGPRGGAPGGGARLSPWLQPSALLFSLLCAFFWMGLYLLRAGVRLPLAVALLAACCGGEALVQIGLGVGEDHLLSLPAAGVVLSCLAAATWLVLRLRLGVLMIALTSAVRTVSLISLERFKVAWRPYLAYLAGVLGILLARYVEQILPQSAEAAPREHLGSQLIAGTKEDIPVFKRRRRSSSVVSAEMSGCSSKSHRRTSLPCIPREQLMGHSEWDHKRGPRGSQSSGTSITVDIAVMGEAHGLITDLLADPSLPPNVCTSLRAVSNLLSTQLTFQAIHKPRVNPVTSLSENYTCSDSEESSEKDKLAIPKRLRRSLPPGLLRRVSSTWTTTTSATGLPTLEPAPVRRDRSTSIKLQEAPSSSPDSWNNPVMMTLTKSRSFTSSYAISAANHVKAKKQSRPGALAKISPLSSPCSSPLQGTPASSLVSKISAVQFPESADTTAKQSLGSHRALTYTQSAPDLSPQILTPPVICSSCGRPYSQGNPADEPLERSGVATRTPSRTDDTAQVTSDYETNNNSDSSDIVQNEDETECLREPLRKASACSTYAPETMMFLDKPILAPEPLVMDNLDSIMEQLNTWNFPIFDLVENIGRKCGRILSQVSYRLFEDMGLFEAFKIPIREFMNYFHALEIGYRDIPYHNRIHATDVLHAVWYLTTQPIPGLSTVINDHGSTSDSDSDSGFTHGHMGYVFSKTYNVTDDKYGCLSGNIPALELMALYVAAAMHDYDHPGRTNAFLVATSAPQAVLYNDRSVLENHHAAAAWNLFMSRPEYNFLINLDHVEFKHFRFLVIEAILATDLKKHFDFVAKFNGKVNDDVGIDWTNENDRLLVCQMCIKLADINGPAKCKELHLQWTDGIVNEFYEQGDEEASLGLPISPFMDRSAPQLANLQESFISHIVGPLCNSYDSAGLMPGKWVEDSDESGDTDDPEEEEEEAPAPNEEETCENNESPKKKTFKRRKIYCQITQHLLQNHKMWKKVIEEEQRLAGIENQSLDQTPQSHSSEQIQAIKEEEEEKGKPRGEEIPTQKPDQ
compound,measurement,value
CCOC(=O)N1CCC(NC(=O)c2cc(C#N)c(=O)[nH]c2C)CC1 [DF492],IC50,410 nM
